Assay results: PubChem BioAssay (NCI)
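Method: 48-hour compound exposure of cells in 96-well plates, five concentrations, linear interpolation of endpoints. GI50 marks 50% less growth. At the TGI there is no net growth.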

Tests used:
Experiment in all cases: NCI anticancer screen, dose series, 48 h
786-0 renal = tested on: 786-0 renal
A498 renal = tested on: A498 renal
A549 NSCLC = tested on: A549 NSCLC
ACHN renal = tested on: ACHN renal
BT-549 breast = tested on: BT-549 breast
CAKI-1 renal = tested on: CAKI-1 renal
CCRF-CEM leukemia = tested on: CCRF-CEM leukemia
COLO 205 colon = tested on: COLO 205 colon
DU-145 prostate = tested on: DU-145 prostate
EKVX NSCLC = tested on: EKVX NSCLC
HCC-2998 colon = tested on: HCC-2998 colon
HCT-116 colon = tested on: HCT-116 colon
HCT-15 colon = tested on: HCT-15 colon
HL-60(TB) leukemia = tested on: HL-60(TB) leukemia
HOP-62 NSCLC = tested on: HOP-62 NSCLC
HOP-92 NSCLC = tested on: HOP-92 NSCLC
HS 578T breast = tested on: HS 578T breast
HT29 colon = tested on: HT29 colon
IGROV1 ovarian = tested on: IGROV1 ovarian
K-562 leukemia = tested on: K-562 leukemia
KM12 colon = tested on: KM12 colon
LOX IMVI melanoma = tested on: LOX IMVI melanoma
M14 melanoma = tested on: M14 melanoma
MALME-3M melanoma = tested on: MALME-3M melanoma
MCF7 breast = tested on: MCF7 breast
MDA-MB-231 breast = tested on: MDA-MB-231 breast
MDA-MB-435 = tested on: MDA-MB-435
MDA-MB-468 breast = tested on: MDA-MB-468 breast
MOLT-4 leukemia = tested on: MOLT-4 leukemia

COc1ccc(-c2nc3cc(C)ccc3n2CC(=O)N=Nc2c(O)[nH]c3ccccc23)cc1
GI50 (786-0 renal): 12.7 µM
TGI (786-0 renal): 26 µM
GI50 (A498 renal): 11.8 µM
TGI (A498 renal): 25.7 µM
GI50 (A549 NSCLC): 1.88 µM
TGI (A549 NSCLC): 4.02 µM
GI50 (ACHN renal): 3.03 µM
TGI (ACHN renal): 11.9 µM
GI50 (BT-549 breast): 1.77 µM
TGI (BT-549 breast): 4.98 µM
GI50 (CAKI-1 renal): 2.86 µM
TGI (CAKI-1 renal): 11.6 µM
GI50 (CCRF-CEM leukemia): 3.54 µM
TGI (CCRF-CEM leukemia): 17.4 µM
GI50 (COLO 205 colon): 3.73 µM
TGI (COLO 205 colon): 14 µM
GI50 (DU-145 prostate): 3.57 µM
TGI (DU-145 prostate): 14 µM
GI50 (EKVX NSCLC): 3.67 µM
TGI (EKVX NSCLC): 15.5 µM
GI50 (HCC-2998 colon): 13.1 µM
TGI (HCC-2998 colon): 26.1 µM
GI50 (HCT-116 colon): 1.86 µM
TGI (HCT-116 colon): 3.71 µM
GI50 (HCT-15 colon): 3.66 µM
TGI (HCT-15 colon): 14.5 µM
GI50 (HL-60(TB) leukemia): 5.5 µM
TGI (HL-60(TB) leukemia): 29.2 µM
GI50 (HOP-62 NSCLC): 3.7 µM
TGI (HOP-62 NSCLC): 18.2 µM
GI50 (HOP-92 NSCLC): 1.94 µM
TGI (HOP-92 NSCLC): 6.3 µM
GI50 (HS 578T breast): 2.27 µM
TGI (HS 578T breast): 7.12 µM
GI50 (HT29 colon): 1.82 µM
TGI (HT29 colon): 3.52 µM
GI50 (IGROV1 ovarian): 11.9 µM
TGI (IGROV1 ovarian): 25 µM
GI50 (K-562 leukemia): 3.23 µM
TGI (K-562 leukemia): 43.5 µM
GI50 (KM12 colon): 3.96 µM
TGI (KM12 colon): 16 µM
GI50 (LOX IMVI melanoma): 6.32 µM
TGI (LOX IMVI melanoma): 20.8 µM
GI50 (M14 melanoma): 2.31 µM
TGI (M14 melanoma): 5.4 µM
GI50 (MALME-3M melanoma): 2.17 µM
TGI (MALME-3M melanoma): 4.42 µM
GI50 (MCF7 breast): 2.17 µM
TGI (MCF7 breast): 5.7 µM
GI50 (MDA-MB-231 breast): 2.06 µM
TGI (MDA-MB-231 breast): 4.64 µM
GI50 (MDA-MB-435): 2.47 µM
TGI (MDA-MB-435): 6.24 µM
GI50 (MDA-MB-468 breast): 2.26 µM
TGI (MDA-MB-468 breast): 5.87 µM
GI50 (MOLT-4 leukemia): 3.65 µM
TGI (MOLT-4 leukemia): 15.8 µM
